Patent publication US11992492B2, “Composition for preventing or treating cellular senescence-associated diseases, containing homoharringtonine as active ingredient” (RESEARCH COOPERATION FOUNDATION OF YEUNGNAM UNIVERSITY, priority 2018, dated 2024)

Experiments:
[1] = system: replicative senescent human fibroblasts; experiment: LDH activity analysis (cytotoxicity) in young and replicative senescent human fibroblasts; format: cell-based; details: young vs replicative senescent fibroblasts; FIG. 2C
Protocol: Cytotoxicity against young and senescent cells was investigated with a lactate dehydrogenase (LDH) activity kit (Dojindo Molecular Technologies Inc.). Young cells (1×10^3 cells/100 μl/well) or senescent cells (2×10^3 cells/100 μl/well) were dispensed into a 96-well plate, and then cultured overnight in a 37° C., 5% CO2 incubator. Homoharringtonine, ABT263 and rapamycin were treated at each concentration, and then incubated for 4 days in a 37° C., 5% CO2 incubator. After transferring the cell culture solution to a 1.5 ml tube, it was centrifuged at 4° C. and 12,000 rpm. 100 μl of the supernatant was dispensed into a 96-well plate, and 100 μl of the LDH measurement solution was added to each well, followed by reaction in a CO2 incubator for 30 minutes. 50 μl of the LDH reaction stop solution was added, and absorbance was measured at 490 nm using a microplate reader. The level of LDH activity was expressed as a relative value based on the absorbance of the control group treated with only DMSO.

[2] = system: human retinal pigmented epithelial cells; experiment: CCK-8 analysis and LDH activity analysis in retinal pigmented epithelial cells; format: cell-based; details: ARPE young and doxorubicin-senescent; FIG. 6D, 6E
Protocol: Young cells (1×10^3 cells/well) or senescent cells (2×10^3 cells/well) were dispensed into a 96-well plate, and cultured overnight in a 37° C., 5% CO2 incubator.
Homoharringtonine, ABT263 and rapamycin were treated at each concentration, and then incubated for 4 days in a 37° C., 5% CO2 incubator. 10 μl of CCK-8 reagent (Dojindo Molecular Technologies Inc., Kumamoto, Japan) was added to each well, and incubated for 2 hours in an incubator. Then, the absorbance was measured at 450 nm using a Microplate reader. The degree of cell survival was expressed as a relative value for the absorbance of the control group treated with only DMSO as 100%.
Cytotoxicity against young and senescent cells was investigated with a lactate dehydrogenase (LDH) activity kit (Dojindo Molecular Technologies Inc.). Young cells (1×10^3 cells/100 μl/well) or senescent cells (2×10^3 cells/100 μl/well) were dispensed into a 96-well plate, and then cultured overnight in a 37° C., 5% CO2 incubator.
Homoharringtonine, ABT263 and rapamycin were treated at each concentration, and then incubated for 4 days in a 37° C., 5% CO2 incubator. […] 50 μl of the LDH reaction stop solution was added, and absorbance was measured at 490 nm using a microplate reader. The level of LDH activity was expressed as a relative value based on the absorbance of the control group treated with only DMSO.

For COC(=O)C[C@](O)(CCCC(C)(C)O)C(=O)O[C@@H]1C(OC)=C[C@]23CCCN2CCc2cc4c(cc2[C@H]13)OCO4 [homoharringtonine, Homoharringtonine], which “LDH activity (cytotoxicity)” value [1] is on record?
The value was “increased only in replicative senescent cells compared to young cells”.

And the “senescent cell-specific cytotoxicity (CCK-8 analysis and LDH activity analysis)” value [2]?
Its value is “not induced”.
